Test results published in the supplement of paper PMC10307832.

How the values were obtained:
Experiment in all cases: relative viability (nuclei count vs DMSO), 5 days (fraction); higher = more cells survive
COR-L23 = system: COR-L23
In short: (§1)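 Medians of duplicate plates are given as relative viability. That measure is the nuclei count in treated wells divided by the count in vehicle wells. Counts were taken on 4× images of lung cancer cell lines in 1536-well plates, 5 days after pin-tool dosing the day after seeding with one drug alone or a fixed anchor-drug dose plus five library-drug doses (not always all listed) in √10 steps.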

ChaGo-K-1 = system: ChaGo-K-1
In short: as §1

EMC-BAC-2 = system: EMC-BAC-2
In short: as §1

EPLC-272H = system: EPLC-272H
In short: as §1

H3255 = system: H3255
In short: as §1

HCC-44 = system: HCC-44
In short: as §1

HCC-827 = system: HCC-827
In short: as §1

LCLC-103H = system: LCLC-103H
In short: as §1

LU99A = system: LU99A
In short: as §1

NCI-H1395 = system: NCI-H1395
In short: as §1

NCI-H1651 = system: NCI-H1651
In short: as §1

NCI-H1793 = system: NCI-H1793
In short: as §1

NCI-H1944 = system: NCI-H1944
In short: as §1

NCI-H2023 = system: NCI-H2023
In short: as §1

NCI-H2085 = system: NCI-H2085
In short: as §1

NCI-H2087 = system: NCI-H2087
In short: as §1

NCI-H2405 = system: NCI-H2405
In short: as §1

NCI-H520 = system: NCI-H520
In short: as §1

NCI-H650 = system: NCI-H650
In short: as §1

NCI-H838 = system: NCI-H838
In short: as §1

SK-MES-1 = system: SK-MES-1
In short: as §1

Compound: CCN(CC)CCCCNc1ncc2cc(-c3cc(OC)cc(OC)c3)c(NC(=O)NC(C)(C)C)nc2n1 + O=C(c1cc(Cc2n[nH]c(=O)c3ccccc23)ccc1F)N1CCN(C(=O)C2CC2)CC1 [Olaparib] (partner 8 µM)
- relative viability (COR-L23; first compound 0.01 µM): 0.365
- relative viability (COR-L23; first compound 0.03162 µM): 0.378
- relative viability (COR-L23; first compound 0.1 µM): 0.368
- relative viability (COR-L23; first compound 0.3162 µM): 0.403
- relative viability (COR-L23; first compound 1 µM): 0.344
- relative viability (ChaGo-K-1; first compound 0.01 µM): 0.444
- relative viability (ChaGo-K-1; first compound 0.03162 µM): 0.416
- relative viability (ChaGo-K-1; first compound 0.1 µM): 0.442
- relative viability (ChaGo-K-1; first compound 0.3162 µM): 0.46
- relative viability (ChaGo-K-1; first compound 1 µM): 0.388
- relative viability (EMC-BAC-2; first compound 0.03162 µM): 0.485
- relative viability (EMC-BAC-2; first compound 0.1 µM): 0.56
- relative viability (EMC-BAC-2; first compound 0.3162 µM): 0.507
- relative viability (EMC-BAC-2; first compound 1 µM): 0.525
- relative viability (EPLC-272H; first compound 0.01 µM): 0.884
- relative viability (EPLC-272H; first compound 0.03162 µM): 0.701
- relative viability (EPLC-272H; first compound 0.1 µM): 0.647
- relative viability (EPLC-272H; first compound 0.3162 µM): 0.737
- relative viability (EPLC-272H; first compound 1 µM): 0.488
- relative viability (H3255; first compound 0.01 µM): 0.567
- relative viability (H3255; first compound 0.03162 µM): 0.52
- relative viability (H3255; first compound 0.1 µM): 0.581
- relative viability (H3255; first compound 0.3162 µM): 0.575
- relative viability (H3255; first compound 1 µM): 0.558
- relative viability (HCC-44; first compound 0.01 µM): 1.06
- relative viability (HCC-44; first compound 0.03162 µM): 1.07
- relative viability (HCC-44; first compound 0.1 µM): 1.03
- relative viability (HCC-44; first compound 0.3162 µM): 1.01
- relative viability (HCC-44; first compound 1 µM): 0.942
- relative viability (HCC-827; first compound 0.01 µM): 0.611
- relative viability (HCC-827; first compound 0.03162 µM): 0.668
- relative viability (HCC-827; first compound 0.1 µM): 0.702
- relative viability (HCC-827; first compound 0.3162 µM): 0.682
- relative viability (HCC-827; first compound 1 µM): 0.735
- relative viability (LCLC-103H; first compound 0.01 µM): 0.813
- relative viability (LCLC-103H; first compound 0.03162 µM): 0.788
- relative viability (LCLC-103H; first compound 0.1 µM): 0.888
- relative viability (LCLC-103H; first compound 0.3162 µM): 0.833
- relative viability (LCLC-103H; first compound 1 µM): 0.567
- relative viability (LU99A; first compound 0.01 µM): 0.249
- relative viability (LU99A; first compound 0.03162 µM): 0.288
- relative viability (LU99A; first compound 0.1 µM): 0.286
- relative viability (LU99A; first compound 0.3162 µM): 0.285
- relative viability (LU99A; first compound 1 µM): 0.245
- relative viability (NCI-H1395; first compound 0.01 µM): 0.46
- relative viability (NCI-H1395; first compound 0.03162 µM): 0.467
- relative viability (NCI-H1395; first compound 0.1 µM): 0.478
- relative viability (NCI-H1395; first compound 0.3162 µM): 0.497
- relative viability (NCI-H1395; first compound 1 µM): 0.431
- relative viability (NCI-H1651; first compound 0.01 µM): 0.193
- relative viability (NCI-H1651; first compound 0.03162 µM): 0.192
- relative viability (NCI-H1651; first compound 0.1 µM): 0.175
- relative viability (NCI-H1651; first compound 0.3162 µM): 0.203
- relative viability (NCI-H1651; first compound 1 µM): 0.183
- relative viability (NCI-H1793; first compound 0.01 µM): 0.676
- relative viability (NCI-H1793; first compound 0.03162 µM): 0.839
- relative viability (NCI-H1793; first compound 0.1 µM): 1.23
- relative viability (NCI-H1793; first compound 0.3162 µM): 0.926
- relative viability (NCI-H1793; first compound 1 µM): 0.54
- relative viability (NCI-H1944; first compound 0.01 µM): 0.363
- relative viability (NCI-H1944; first compound 0.03162 µM): 0.415
- relative viability (NCI-H1944; first compound 0.1 µM): 0.474
- relative viability (NCI-H1944; first compound 0.3162 µM): 0.428
- relative viability (NCI-H1944; first compound 1 µM): 0.394
- relative viability (NCI-H2023; first compound 0.01 µM): 0.521
- relative viability (NCI-H2023; first compound 0.03162 µM): 0.512
- relative viability (NCI-H2023; first compound 0.1 µM): 0.668
- relative viability (NCI-H2023; first compound 0.3162 µM): 0.55
- relative viability (NCI-H2023; first compound 1 µM): 0.449
- relative viability (NCI-H2085; first compound 0.01 µM): 0.818
- relative viability (NCI-H2085; first compound 0.03162 µM): 0.81
- relative viability (NCI-H2085; first compound 0.1 µM): 0.792
- relative viability (NCI-H2085; first compound 0.3162 µM): 0.743
- relative viability (NCI-H2085; first compound 1 µM): 0.752
- relative viability (NCI-H2087; first compound 0.01 µM): 0.581
- relative viability (NCI-H2087; first compound 0.03162 µM): 0.599
- relative viability (NCI-H2087; first compound 0.1 µM): 0.71
- relative viability (NCI-H2087; first compound 0.3162 µM): 0.735
- relative viability (NCI-H2087; first compound 1 µM): 0.476
- relative viability (NCI-H2405; first compound 0.01 µM): 0.873
- relative viability (NCI-H2405; first compound 0.03162 µM): 0.88
- relative viability (NCI-H2405; first compound 0.1 µM): 1.03
- relative viability (NCI-H2405; first compound 0.3162 µM): 0.952
- relative viability (NCI-H2405; first compound 1 µM): 0.928
- relative viability (NCI-H520; first compound 0.01 µM): 0.367
- relative viability (NCI-H520; first compound 0.03162 µM): 0.377
- relative viability (NCI-H520; first compound 0.1 µM): 0.318
- relative viability (NCI-H520; first compound 0.3162 µM): 0.272
- relative viability (NCI-H520; first compound 1 µM): 0.261
- relative viability (NCI-H650; first compound 0.01 µM): 0.369
- relative viability (NCI-H650; first compound 0.03162 µM): 0.408
- relative viability (NCI-H650; first compound 0.1 µM): 0.41
- relative viability (NCI-H650; first compound 0.3162 µM): 0.355
- relative viability (NCI-H650; first compound 1 µM): 0.391
- relative viability (NCI-H838; first compound 0.01 µM): 0.824
- relative viability (NCI-H838; first compound 0.03162 µM): 0.835
- relative viability (NCI-H838; first compound 0.1 µM): 0.743
- relative viability (NCI-H838; first compound 0.3162 µM): 0.745
- relative viability (NCI-H838; first compound 1 µM): 0.603
- relative viability (SK-MES-1; first compound 0.01 µM): 0.913
- relative viability (SK-MES-1; first compound 0.03162 µM): 0.752
- relative viability (SK-MES-1; first compound 0.1 µM): 0.863
- relative viability (SK-MES-1; first compound 0.3162 µM): 0.735
- relative viability (SK-MES-1; first compound 1 µM): 0.727
